In patent publication US8071778B2, “Substituted heterocyclic ethers and their use in CNS disorders” (Bristol-Myers Squibb Company, priority 2006, dated 2011):
Like-named read-outs stand apart in the source and are kept apart here.

What was measured:
hSERT = molecular target: T1, hSERT (Homo sapiens, UniProt P31645); test: SERT radioligand binding assay
T1 construct: expressed in transfected cells; host or cells: HEK-293 cells (crude membranes)
Description: (§1) NK-1 Binding assay. Crude membrane suspensions were prepared for the NK1 and SERT radioligand binding assays from U373 cells or recombinant HEK-293 cells expressing hSERT, respectively. […] The medium is removed from the flasks and the cells rinsed with HBSS without Ca and without Mg. The cells are then incubated for 5-10 minutes in 10 mM Tris-Cl, pH 7.5, 5 mM EDTA before the cells are lifted with a combination of pipetting and scraping, as needed. To prepare membranes, the cell suspension is collected into centrifuge bottles and homogenized for 30 seconds with a Polytron homogenizer. The suspension is centrifuged for 30 min 32,000×g, 4° C., then the supernatant is decanted and the pellet resuspended and homogenized in 50 mM Tris-Cl, pH 7.5, 1 mM EDTA for 10 seconds. The suspension is then centrifuged again for 30 min 32,000×g, 4° C. The supernatant is decanted and the pellet resuspended in 50 mM Tris-Cl, pH 7.5, 1 mM EDTA and briefly homogenized. A Bradford assay (Bio-rad) is performed and the membrane preparation diluted to 2 mg/ml with 50 mM Tris-Cl, pH 7.5, 1 mM EDTA. Aliquots are prepared, and then frozen and stored at −80° C.
(§2) SERT radioligand binding assay. Compounds are dissolved in 100% DMSO at a concentration 100× the desired highest assay concentration, serially diluted 1:3 in 100% DMSO, and 0.4 ul/well of each solution is dispensed to a Nunc polypropylene, round bottom, 384 well plate. […] The contents of the assay plate are then transferred to a Millipore MultiscreenHTS GF/B filter plate which has been pretreated with 0.5% PEI for at least one hour. The plate is vacuum filtered and washed with 7 washes of 100 ul/well of 50 mM Tris-Cl, pH 7.5, 120 mM NaCl, 5 mM KCl chilled to 4° C. The filtration and washing is completed in less than 90 s. The plates are air-dried overnight, 12 ul/well of MicroScint scintillation fluid added, and the plates counted in a Trilux.
(§3) Data analysis. […] Each plate is run in triplicate, and the concentration response curve thus generated is fit using the four-parameter dose response equation, Y=Bottom+(Top-Bottom)/(1+10^((Log IC50−X)*HillSlope)) in order to determine the IC50 value for each compound. The radioligand concentration chosen for each assay corresponds to the Kd concentration determined through saturation binding analysis for each assay.

NK-1 = molecular target: T2, NK-1 (Homo sapiens, UniProt P25103); test: NK1 radioligand binding assay; conditions: U373 membrane preparation, [125I]Substance P
T2 construct: endogenous in cells; host or cells: U373 cells (crude membranes)
Description: as §1
as §2, with “NK1” for “SERT”, “0.6” for “0.4”, “20” for “50”, “0.5% (w/v) BSA” for “120 mM NaCl, 5 mM KCl”
as §3

[1] = HEK-hSERT membrane preparation, [125I]RTI-55, read-out: SERT IC50

T2 sequence (P25103 whole entry): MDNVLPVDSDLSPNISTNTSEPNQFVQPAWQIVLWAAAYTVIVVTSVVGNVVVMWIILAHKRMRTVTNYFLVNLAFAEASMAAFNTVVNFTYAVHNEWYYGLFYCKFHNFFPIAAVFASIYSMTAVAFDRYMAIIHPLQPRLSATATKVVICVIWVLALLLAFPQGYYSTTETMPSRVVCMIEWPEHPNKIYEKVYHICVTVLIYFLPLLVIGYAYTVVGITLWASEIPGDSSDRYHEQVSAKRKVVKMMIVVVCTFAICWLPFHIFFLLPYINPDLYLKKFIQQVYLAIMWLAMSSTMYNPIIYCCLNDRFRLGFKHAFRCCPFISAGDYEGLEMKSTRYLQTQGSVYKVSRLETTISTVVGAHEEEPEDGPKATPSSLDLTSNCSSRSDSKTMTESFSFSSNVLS
T1 sequence (P31645 whole entry): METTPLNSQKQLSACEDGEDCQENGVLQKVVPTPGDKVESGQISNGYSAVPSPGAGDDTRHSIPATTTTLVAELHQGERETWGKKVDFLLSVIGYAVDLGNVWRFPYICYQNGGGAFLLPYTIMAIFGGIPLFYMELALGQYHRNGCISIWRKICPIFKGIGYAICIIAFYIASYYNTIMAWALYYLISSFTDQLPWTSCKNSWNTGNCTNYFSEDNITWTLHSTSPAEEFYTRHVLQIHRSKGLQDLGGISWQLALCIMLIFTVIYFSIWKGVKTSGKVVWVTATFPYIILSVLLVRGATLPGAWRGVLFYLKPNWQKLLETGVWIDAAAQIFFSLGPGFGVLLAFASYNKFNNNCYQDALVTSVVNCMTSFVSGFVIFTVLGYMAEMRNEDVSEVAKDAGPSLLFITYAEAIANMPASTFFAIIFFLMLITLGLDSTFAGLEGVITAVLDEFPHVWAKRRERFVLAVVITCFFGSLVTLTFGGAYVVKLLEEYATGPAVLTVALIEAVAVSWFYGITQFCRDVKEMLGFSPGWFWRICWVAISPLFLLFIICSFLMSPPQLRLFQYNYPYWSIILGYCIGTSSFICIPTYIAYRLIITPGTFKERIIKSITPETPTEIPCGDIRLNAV

IC50 (hSERT; [1]) [nM]	SMILES	IC50 (NK-1) [nM]	IC50 (hSERT) [nM]
	CN1CCC(COCc2cc(C(F)(F)F)cc(-c3ccc(C#N)cc3)n2)(c2ccc(F)cc2)CC1 [Example 47]	0.01 to 100	0.01 to 100
	CN1CCC(COCc2cc(-c3ccc(C#N)cc3)nc(-c3ccc(C#N)cc3)c2)(c2ccccc2)CC1 [Example 67]	> 300	100 to 300
0.01 to 100	CC(OCC1(c2ccccc2)CCNCC1)c1cc(C(F)(F)F)cc(-c2ccc(C#N)cc2)n1 (stereo not shown) [Example 8]	0.01 to 100	
	CN1CCC(COCc2cc(C(F)(F)F)cc(N3CCC(F)(F)C3)n2)(c2ccc(F)cc2)CC1 [Example 89]	0.01 to 100	0.01 to 100
0.01 to 100	Cc1ccc(-c2cc(C(F)(F)F)cc(COCC3(c4ccccc4)CCNCC3)n2)cc1 [Example 4]	0.01 to 100	
	Cc1ccc(-c2cc(C(F)(F)F)cc(COCC3(c4ccccc4)CCN(C)CC3)n2)cc1 [Example 40]	0.01 to 100	0.01 to 100
0.01 to 100	c1ccc(C2(COCc3cncc(-c4ccco4)c3)CCNCC2)cc1 [Example 9]	> 300	
	CN1CCC(COCc2cc(C(F)(F)F)cc(-c3ccc(C#N)cc3)n2)(c2cccnc2)CC1 [Example 98]	0.01 to 100	0.01 to 100
	CC(OCC1(c2ccc(F)cc2)CCN(C)CC1)c1cc(C(F)(F)F)cc(N2CCC[C@@H]2C)n1 (stereo partly shown) [Example 95]	0.01 to 100	0.01 to 100
0.01 to 100	FC(F)(F)c1cc(COCC2(c3ccccc3)CCNCC2)nc(-c2ccncc2)c1 [Example 2]	0.01 to 100	
	CN1CCC(COCc2cc(C(F)(F)F)cc(-c3ccncc3)n2)(c2ccccc2)CC1 [Example 39]	0.01 to 100	0.01 to 100
100 to 300	COc1cc(OC)nc(COCC2(c3ccccc3)CCNCC2)n1 [Example 30, 4,6-dimethoxy-2(((4-phenylpiperidin-4-yl)methoxy)methyl)pyrimidine]	> 300	
0.01 to 100	CC(OCC1(c2ccccc2)CCNCC1)c1cc(C(F)(F)F)cc(N2CCOCC2)n1 (stereo not shown) [Example 23]	0.01 to 100	
	CN1CCC(COCc2cc(C(F)(F)F)cc(N3CC[C@@H](F)C3)n2)(c2ccc(F)cc2)CC1 [Example 92]	0.01 to 100	0.01 to 100
0.01 to 100	CC(OCC1(c2ccccc2)CCNCC1)c1cc(C(F)(F)F)cc(C#N)n1 (stereo not shown) [Example 32]	0.01 to 100	
	CCN(c1cc(C(F)(F)F)cc(COCC2(c3ccc(F)cc3)CCN(C)CC2)n1)C(C)C [Example 73]	0.01 to 100	0.01 to 100
0.01 to 100	N#Cc1cc(C(F)(F)F)cc(COCC2(c3ccccc3)CCNCC2)n1 [Example 31]	> 300	
0.01 to 100	N#Cc1ccc(-c2cncc(COCC3(c4ccccc4)CCNCC3)c2)cc1 [Example 25, 4-(5-(((4-phenylpiperidin-4-yl)methoxy)methyl)pyridine-3yl)benzonitrile]	> 300	
0.01 to 100	Clc1ccc(-c2ccc(COCC3(c4ccccc4)CCNCC3)cn2)cc1 [Example 10]	> 300	
	CN1CCC(COCc2ccc(-c3ccc(Cl)cc3)nc2)(c2ccccc2)CC1 [Example 50]	> 300	0.01 to 100
	CN1CCC(COCc2cncc(-c3ccco3)c2)(c2ccccc2)CC1 [Example 49]	> 300	0.01 to 100

IC50 (hSERT; [1]) [nM]	SMILES	IC50 (NK-1) [nM]	IC50 (hSERT) [nM]
	CN1CCC(COCc2cc(C(F)(F)F)cc(-c3ncon3)n2)(c2ccc(F)cc2)CC1 [Example 37, 3-(6-(((4-(4-fluorophenyl)-1-methylpiperidin-4-yl)methoxy)methyl)-4-(trifluoromethyl)pyridin-2-yl)-1,2,4-oxadiazole]	100 to 300	0.01 to 100
100 to 300	FC(F)(F)c1ccc(-c2cc(C(F)(F)F)cc(COCC3(c4ccccc4)CCNCC3)n2)cc1 [Example 3]	> 300	
	CC(OCC1(c2ccccc2)CCN(C)CC1)c1cc(C(F)(F)F)cc(-c2ccc(C#N)cc2)n1 (stereo not shown) [Example 46]	0.01 to 100	0.01 to 100
	Cc1cc(C(F)(F)F)cc(COCC2(c3ccc(F)cc3)CCN(C)CC2)n1 [Example 36, 2-(((4-(4-fluorophenyl)-1-methylpiperidin-4-yl)methoxy)methyl)-6-methyl-4-(trifluoromethyl)pyridine]	0.01 to 100	0.01 to 100
	CN1CCC(COCc2cc(C(F)(F)F)cc(N3CC[C@H](F)C3)n2)(c2ccc(F)cc2)CC1 [Example 91]	0.01 to 100	0.01 to 100
0.01 to 100	N#CC1CCN(c2cc(C(F)(F)F)cc(COCC3(c4ccc(F)cc4)CCNCC3)n2)C1 (stereo not shown) [Example 18]	0.01 to 100	
	CN1CCC(COCc2cc(C(F)(F)F)cc(-c3ccc[nH]3)n2)(c2ccc(F)cc2)CC1 [Example 66]	0.01 to 100	0.01 to 100
0.01 to 100	Fc1ccc(C2(COCc3cc(C(F)(F)F)cc(N4CCCC4)n3)CCNCC2)cc1 [Example 20]	0.01 to 100	
0.01 to 100	Fc1ccc(C2(COCc3cc(C(F)(F)F)cc(N4CC=CC4)n3)CCNCC2)cc1 [Example 19]	0.01 to 100	
	CN1CCC(COCc2cc(C(F)(F)F)cc(-c3ccc(C#N)cc3)n2)(c2cccc(Cl)c2)CC1 [Example 82]	0.01 to 100	0.01 to 100
0.01 to 100	Fc1ccc(-c2cc(C(F)(F)F)cc(COCC3(c4ccccc4)CCNCC3)n2)cc1 [Example 5]	0.01 to 100	
0.01 to 100	CCN(CC)c1cc(C(F)(F)F)cc(COCC2(c3ccc(F)cc3)CCNCC2)n1 [Example 22]	0.01 to 100	
	COc1ccc(-c2cc(C(F)(F)F)cc(COCC3(c4ccc(F)cc4)CCN(C)CC3)n2)cc1 [Example 74]	0.01 to 100	0.01 to 100
100 to 300	FC(F)(F)c1cc(COCC2(c3ccccc3)CCNCC2)nc(N2CCOCC2)c1 [Example 15]	0.01 to 100	
	Cc1cc(-c2cc(C(F)(F)F)cc(C(C)OCC3(c4ccc(F)cc4)CCN(C)CC3)n2)ccc1C#N (stereo not shown) [Example 97]	0.01 to 100	100 to 300
	COc1ccc(-c2cc(C(F)(F)F)cc(COCC3(c4ccccc4)CCN(C)CC3)n2)cc1 [Example 38, 2-(4-methoxyphenyl)-6-(((1-methyl-4-phenylpiperidin-4-yl)methoxy)methyl)-4-(trifluoromethyl)pyridine]	0.01 to 100	0.01 to 100
	CN1CCC(COCc2cc(C(F)(F)F)cc(-c3ccc(C#N)cc3)n2)(c2ccccc2F)CC1 [Example 54]	0.01 to 100	100 to 300
0.01 to 100	Fc1ccc(C2(COCc3cc(C(F)(F)F)cc(-c4ccc(F)cc4F)n3)CCNCC2)cc1 [Example 12]	0.01 to 100	
	COc1cc(COCC2(c3ccc(F)cc3)CCN(C)CC2)cc(C(F)(F)F)n1 [Example 80]	0.01 to 100	0.01 to 100
0.01 to 100	CC(OCC1(c2ccccc2)CCNCC1)c1cc(C(F)(F)F)cc(C(F)(F)F)n1 (stereo not shown) [Example 27, 2-(1-((4-phenylpiperidin-4-yl)methoxy)ethyl)-4,6-bis(trifluoromethyl)pyridine]	0.01 to 100	

SMILES	IC50 (hSERT; [1]) [nM]	IC50 (NK-1) [nM]	IC50 (hSERT) [nM]
CC(OCC1(c2ccc(F)cc2)CCN(C)CC1)c1cc(C(F)(F)F)cc(N2CC[C@@H](F)C2)n1 (stereo partly shown) [Example 87]	0.01 to 100	0.01 to 100	
CN1CCC(COCc2cc(C(F)(F)F)cc(N3CCCC3)n2)(c2ccccc2F)CC1 [Example 55]	0.01 to 100	0.01 to 100	
CN1CCC(COCc2cc(C(F)(F)F)cc(N3CCCC3)n2)(c2ccc(F)cc2)CC1 [Example 59]	0.01 to 100	0.01 to 100	
